Data set [1] relates to 12 day biofilm of Pseudomonas aeruginosa. In words: Bacterial count (CFU/ml) of 12-day biofilm after 24 hours with the products. Format: cell-based. The conditions noted are these: tobramycin 4 μg/ml alone; clarithromycin 100, 200 and 500 μg/ml alone; all combinations. The source says: Biofilms of Pseudomonas aeruginosa—strain PY O1 were formed according to the methods described by Ceri et al, the calgary biofilm device: new technology for rapid determination of antibiotic susceptibilities of bacterial biofilms, Journal of clinical microbiology, pp. 1771-1776, 1999 and Abdi-Ali et al, bactericidal activity of various antibiotics against biofilm-producing Pseudomonas aeruginosa, International Journal of Antimicrobial Agents 27, 196-200, 2006.
PY O1: is a cystic Fibrosis clinical mucoid strain of Pseudomonas aeruginosa received from the Erasme Hospital, Brussels.
After having shown that the number of Pseudomonas aeruginosa within the biofilms was stable after 12 days, the products listed in Table 1 were added to the media for the duration of 24 hours. Thereafter the biofilm was rinsed three times with a 0.01M phosphate buffer adjusted at pH 7.5 in order to remove all cells not bound to the biofilm. The microplate was then placed on ultrasonic bath at 35° C. for 5 minutes to allow the bacteria present in the biofilm to separate from such biofilm. A bacterial count was then performed (number of coloning forming unit CFU/ml). Each experience was done twice and the CFU counting was also repeated twice/experience.

Data set [2] can be described thus: In vitro lung deposition, Multistage Liquid Impinger (MLI). As to conditions: for lung concentration obtained per capsule: composition of example 6, epithelial liquid in the lung estimated at about 100 ml. It counts as physicochemical. The source says:
The amount of macrolide agent inhaled shall be high enough to affect, in some way, the biofilm. It has to be noted that as the effect of macrolide derivatives on the biofilm is mediated through a non-antibacterial mechanism. […] Nevertheless, it is a another object of the present invention to provide a composition containing high concentrations (or amounts) of each of the aminoglycoside derivative and of the macrolide derivative i.e. at least more than 10%, preferably more than 15%, and more preferably more than 20% of the dry powder composition. It is indeed particularly interesting to achieve high lung doses of those therapeutic agents with the minimum amounts of inhalations because it makes the administration easier and more importantly increase the patient's compliance. It also decreases the nominal dose of each active ingredient and thus the adverse effects linked to these actives. In the present invention, the dry powder inhaler also provides a high Fine Particle Dose (FPD) and Fine Particle […] (FPF) when tested in vitro on a Multistage Liquid Impinger (MLI, Eur. Pharm, 5th Edition, chapter 2.9.18). The FPD and FPF are the parameters that predict in vivo lung deposition.
The in vitro lung deposition test was performed using equipment and conditions as described in the European Pharmacopoeia (5th edition, chapter 2.9.18—apparatus C). This equipment consists of a Multistage Liquid Impinger (MLI) and was operated with an air flow of 100 L/min during a period of time of 2.4 seconds to simulate inhalation capabilities of patients. The quantification of the deposition of each drug on each stage of the MLI was performed by HPLC equipped with a a Corona detector.

In data set [3] the test system is planktonic Pseudomonas aeruginosa. As to the kind of experiment: MIC on planktonic bacteria (NCCLS dilution standard). Format: cell-based. As to the method:
The determination of the minimal inhibitory concentration (MIC) is performed according to the standard of NCCLS (NCCLS, Methods for dilution Antimicrobial Susceptibility Tests for bacteria that grow aerobically; approved standards, sixth edition, M7-A6, vol. 23 no. 2, January 2003.

Where [4] appears, read: composition of example 6, 10 mg/capsule, MLI 100 L/min, Mean (n = 3).
The mark [5] stands for this setting: composition of example 6, 10 mg/capsule, MLI 100 L/min, run MLI1.
Where [6] appears, read: composition of example 6, 10 mg/capsule, MLI 100 L/min, run MLI2.
[7] abbreviates: composition of example 6, 10 mg/capsule, MLI 100 L/min, run MLI3.

≈ marks a conversion by molar mass, not a printed value. Where two headings read alike, the source gives them in different places.

For the compound `CC[C@H]1OC(=O)[C@H](C)[C@@H](O[C@H]2C[C@@](C)(OC)[C@@H](O)[C@H](C)O2)[C@H](C)[C@@H](O[C@@H]2O[C@H](C)C[C@H](N(C)C)[C@H]2O)[C@](C)(OC)C[C@@H](C)C(=O)[C@H](C)[C@@H](O)[C@]1(C)O` [Clarithromycin], in data set [1], the “Decrease of the number of CFU/ml of the 12-day biofilm versus the positive control” value is “neither tobramycin 4 μg/ml nor clarithromycin at 100, 200 and 500 μg/ml alone are able to decrease the number of CFU/ml”. The FPD is listed as 3.63 mg in data set [2] (setting [4]), 3.14 mg in data set [2] (setting [5]), 3.76 mg in data set [2] (setting [6]) and 3.98 mg in data set [2] (setting [7]). In data set [2] (setting [4]), this compound returned a Filter deposition of 0.550 mg. Moreover, in data set [2] (setting [7]), the “Stage 2 deposition” value was 0.680 mg. Further, the “lung concentration obtained per capsule” value in data set [2] is 36.3 µg/mL. Moreover, the MIC result in data set [3] was “not sensitive”.

For `NC[C@H]1O[C@H](O[C@H]2[C@H](O)[C@@H](O[C@H]3O[C@H](CO)[C@@H](O)[C@H](N)[C@H]3O)[C@H](N)C[C@@H]2N)[C@H](N)C[C@@H]1O` [Tobramycin], in data set [1], the “Decrease of the number of CFU/ml of the 12-day biofilm versus the positive control” value is “neither tobramycin 4 μg/ml nor clarithromycin at 100, 200 and 500 μg/ml alone are able to decrease the number of CFU/ml”. The FPD in data set [2] (setting [4]) came out at 4.26 mg; in data set [2] (setting [5]), 3.60 mg; in data set [2] (setting [6]) it was 4.45 mg; in data set [2] (setting [7]) it was 4.72 mg. The compound also returned a Filter deposition in data set [2] (setting [4]) of 0.760 mg. Besides, the “lung concentration obtained per capsule” value in data set [2] is 42.6 µg/mL. Moreover, in data set [3] (read-out: MIC), the MIC turned out to be 3.9 µg/mL (≈ 8.34 µM).

A word on the MIC: it is the smallest concentration in the dilution series that meets the test's criterion for growth inhibition.
